Literature values, collected in patent publication US20230364254A1, “METHODS FOR TREATING CANCERS WITH ANTIBODY DRUG CONJUGATES (ADC) THAT BIND TO 191P4D12 PROTEINS” (priority 2020, published 2023).
Like-named read-outs stand apart in the source and are kept apart here.

What was measured:
[1] = system: metastatic urothelial cancer; conditions: cited from earlier work
[2] = system: acute myeloid leukemia (AML); conditions: administered alone; cited from earlier work
[3] = first line, patients ineligible for cisplatin, open-label single arm study
[4] = second-line, post-platinum, phase 3 study in 542 patients

In the case of `CC(=O)O[C@@]12CO[C@@H]1C[C@H](O)[C@@]1(C)C(=O)[C@H](O)C3=C(C)[C@@H](OC(=O)[C@H](O)[C@@H](NC(=O)OC(C)(C)C)c4ccccc4)C[C@@](O)([C@@H](OC(=O)c4ccccc4)[C@H]21)C3(C)C` [docetaxel], the “ORR (n=2/19)” value ([1]; after platinum and CPI therapy) is given as 10.5%.

For `CC[C@]12C=CCN3CC[C@@]4(c5cc([C@@]6(C(=O)OC)C[C@@H]7C[C@@H](C(C)(F)F)CN(Cc8c6[nH]c6ccccc86)C7)c(OC)cc5N(C)[C@H]4[C@@](O)(C(=O)OC)[C@@H]1OC(C)=O)[C@@H]32` [vinflunine], the overall response rate ([1]; second-line treatment of metastatic disease) is given as 9%, the hazard ratio ([1]; second-line, vinflunine+BSC vs BSC alone) is given as 0.88 and the survival benefit ([1]; second-line, vinflunine+best supportive care (BSC) vs BSC alone) is given as 2 months. For the same compound, the survival ([1]; second-line, vinflunine+best supportive care (BSC)) was 6.9 months.

In the case of “CT-011: anti-PD-1 antibody, a humanized antibody”, the “response in acute myeloid leukemia (AML) at relapse” value [2] is listed as “failed to show response”.

For “atezolizumab: anti-programmed death-ligand 1 (PD-L1) immune checkpoint inhibitor”, the “median OS” value [1, 3] is given as 15.9 months, the “objective response rate (ORR)” value [1, 3] is given as 23% and the “confirmatory phase 3 trial outcome” value ([1]; second-line) is given as “failed to meet its primary endpoint of OS”.

In the case of “pembrolizumab: humanized monoclonal IgG4 anti-PD-1 antibody”, the ORR ([1]; first line, patients ineligible for cisplatin, open label single arm study in 370 patients) is given as 29%, the “difference in progression-free survival (PFS) between the two arms” value ([1]; second-line, post-platinum, phase 3, vs taxane chemotherapy or vinflunine) is given as “No statistically significant difference” and the ORR [1, 4] is given as 21%. For the same compound, the OS [1, 4] was 10.3 months.
